Data published in US20090283050A1, “FEED COMPOSITION AND METHOD FOR BREEDING ANIMALS” (KENKO CORPORATION, priority 2005, published 2009).

Tested on: Salmonella
Assay: Antimicrobial effect (MIC, MBC) on Salmonella
Type: cell-based
Settings: compared with the other antimicrobial agents tested
Procedure: The antimicrobial effects of these samples were evaluated by the determination of Minimum Inhibitory Concentration (MIC) and Minimum Bactericidal Concentration (MBC).
In this connection, bacterial strains used herein were those obtained from enteric canal of broiler chicken.

SMILES: CC1(C)S[C@@H]2[C@H](NC(=O)[C@H](N)c3ccccc3)C(=O)N2[C@H]1C(=O)O [Ampicillin]
- antibacterial effect against Salmonella, in words: quite weak antibacterial effect
